In the assay the test system is CEM cells HIV-1 protection, formazan growth assay. Kind of assay: NCI AIDS Antiviral Assay. The settings on record: for IC50: measured here: growth of uninfected CEM cells. The gist of the method:
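Human CEM cells, uninfected and HIV-1-infected, received five drug concentrations, and growth was read by soluble formazan assay. Compounds giving at least 50% protection were retested; reproducible 100% protection defined confirmed active.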

From PubChem BioAssay AID179 (DTP/NCI, 2004) come the findings set out here.

Activity calls are given as the source filed them.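 Rule for the calls: active = compounds giving half or more protection of infected cells from virus-caused growth loss, again on retest; inactive = the rest.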

For the compound `COC1C(O)CC(=O)OC(C)C/C=C/C=C/C(OC2CCC(N(C)C)C(C)O2)C(C)CC(CC=O)C1OC1OC(C)C(OC2CC(C)(O)C(O)C(C)O2)C(N(C)C)C1O` (stereo not given), the EC50 was more than 200 µM and the concentration for half-maximal inhibition (IC50) was more than 200 µM. With `CCOC(=O)c1ccc(/C(C#N)=C/c2ccc(Cl)cc2)cc1`, the EC50 is more than 200 µM and the 50% inhibitory concentration (IC50) was more than 200 µM. For `CCN(CC)c1ccc2nc3c4ccccc4c(=O)cc-3n(-c3ccccc3)c2c1`, the EC50 is more than 200 µM and the IC50 was 4.57 µM.

Compound `CCNC(=O)Sc1ccccc1C(=O)N[C@H](C)C(N)=O` displayed a 50% effective concentration (EC50) of 1.15 µM and an IC50 of 93.3 µM. The corresponding values for `Cc1cc(=O)[nH]c2c3c(ccc12)OC(C)(C)C=C3` are more than 200 µM and 3.72 µM.

As to `CCOC(=O)c1[nH]c(-c2[nH]c(-c3[nH]c(-c4[nH]c(C(=O)OCC)c(C)c4C(=O)OCC)c(C(=O)OCC)c3C)c(C)c2C(=O)OCC)c(C(=O)OCC)c1C`, the EC50 is more than 200 µM and the 50% inhibitory concentration (IC50) is more than 200 µM. For `c1ccc(CNCCCCNCCCNCc2ccccc2)cc1`, the EC50 was more than 200 µM and the IC50 turned out to be 13.8 µM. On to `CCOC(=O)C1=C(c2ccccc2)C12N(Cc1ccccc1)C(=O)C2(c1ccccc1)c1ccccc1` (stereo not given), for which the EC50 is more than 200 µM and the half-inhibitory concentration (IC50) worked out at 11 µM. The matching figures for `CCCCCCCCCCCC(C(=O)O)C(=O)O`: more than 138 µM and more than 138 µM. The matching figures for `O=C(O)CCSCCCCCCCCCCCCSCCC(=O)O`: more than 91.2 µM and more than 91.2 µM.

On to `COc1cc(N=Nc2ccccc2)cc(/C=N/NC(=O)c2cccnc2)c1O`, for which the EC50 is more than 661 µM and the concentration for half-maximal inhibition (IC50) stood at 60.3 µM. As for `CC(C)CCC1(O)O[C@H]2C[C@H]3[C@@H]4CCC5=CC(=O)C=C[C@]5(C)[C@H]4CC[C@]3(C)[C@H]2[C@@H]1C` (stereo not given in full), the result was inactive. For the compound `COC(=O)C1=C(OC)C(C(=O)OC)C23CCCC12C(C(=O)OC)C(OC)C3C(=O)OC` (stereo not given), the EC50 is more than 135 µM and the IC50 is more than 135 µM. On to `CC(=O)OC(C)(C)/C=C/C(=O)[C@](C)(O)[C@H]1[C@H](O)C[C@@]2(C)[C@@H]3CC=C4[C@@H](C[C@H](O)C(=O)C4(C)C)[C@]3(C)C(=O)C[C@]12C`, for which the EC50 was more than 0.2 µM and the IC50 was determined as 0.00955 µM. Turning to `BrCC[P+](c1ccccc1)(c1ccccc1)c1ccccc1`, the EC50 was more than 200 µM and the concentration for half-maximal inhibition (IC50) came out at 3.98 µM.

Take `COC(=O)C1C(=O)NC2(C)CC1c1ccccc1O2` (stereo not given): the outcome was inactive. `N#C/C(=C1\N=C(c2ccccc2O)Oc2ccccc21)c1ccc([N+](=O)[O-])cc1`: the EC50 was more than 100 µM and the IC50 is more than 100 µM. Regarding `O=[N+]([O-])C1C2C=CC(C2)[C@H]1c1ccccc1Cl` (stereo not given in full), the outcome was inactive. For the compound `CC1(C)O[C@]2(C=C[C@@H]1O)CCCCO2`, the EC50 was more than 251 µM and the half-maximal inhibitory concentration (IC50) was more than 251 µM. Take `Cc1nc2ccccc2nc1CC(=O)C(=O)Nc1ccc(Cl)cc1Cl`: the EC50 was 302 µM and the half-inhibitory concentration (IC50) turned out to be 347 µM. For the compound `C=C=C(C(=O)OC)S(=O)c1ccccc1[N+](=O)[O-]` (stereo not given), the result was inactive. As for `CC1=C(C2=C(C)C(=O)C(=O)c3cc(C)ccc32)c2ccc(C)cc2C(=O)C1=O`, the EC50 is more than 200 µM and the 50% inhibitory concentration (IC50) amounted to 0.0631 µM.

As for `CCCCCCCC(=O)OCC(COC(=O)C(C)(C)C)OC(=O)Cc1ccccc1` (stereo not given), the EC50 was more than 251 µM and the half-maximal inhibitory concentration (IC50) is more than 251 µM. As for `CC(C)OP(=O)(OC(C)C)/C(Cl)=N/Nc1ccc([N+](=O)[O-])cc1`, the EC50 was more than 70.8 µM and the IC50 is more than 70.8 µM. Take `O=C(CC1(O)C(=O)Nc2ccc(Br)cc21)c1cccc([N+](=O)[O-])c1` (stereo not given): the EC50 is more than 174 µM and the IC50 worked out at 93.3 µM.

For the compound `COc1cc(Nc2cnc3cc(F)c(F)cc3n2)cc(OC)c1`, the EC50 was more than 200 µM and the 50% inhibitory concentration (IC50) was more than 200 µM. Turning to `O=C(O)CSC(NC(=O)C(C(F)(F)F)C(F)(F)F)(C(F)(F)F)C(F)(F)F`, the EC50 was more than 200 µM and the concentration for half-maximal inhibition (IC50) was more than 200 µM. `CCN(CC)CC(C(=O)Nc1c(C)cccc1C)/C(C)=N/NC(N)=S` (stereo not given): the EC50 was more than 37.2 µM and the IC50 was more than 37.2 µM.

In the case of `CCN(CC)CCOc1ccc(S(=O)(=O)c2ccc(OCCN(CC)CC)cc2)cc1`, the EC50 was more than 200 µM and the IC50 came out at 39.8 µM. The corresponding values for `Cc1cccc(/C=N/N=C(\N)NO)n1` are more than 692 µM and 141 µM. With `CN(C)C1=Nc2ccccc2C(=S)N2CSCC12` (stereo not given), the EC50 is more than 200 µM and the IC50 worked out at 29.5 µM. As to `CC1(CF)SCc2nc3ccccc3n21` (stereo not given), the EC50 was more than 200 µM and the IC50 is more than 200 µM. Turning to `CCC[CH2][Sn]([CH2]CCC)([O]C(=O)c1cc(OC)c(OC)c(OC)c1)[O]C(=O)c1cc(OC)c(OC)c(OC)c1`, the EC50 was more than 11 µM and the IC50 was found to be 1.45 µM. The matching figures for `N#C/C(=C\NC(=S)C(N)=S)c1nc2ccccc2s1`: more than 200 µM and 5.75 µM. The matching figures for `CCN(c1ccccc1)c1cc(=O)nc2ccccn12`: more than 200 µM and more than 200 µM. Turning to `CN1C(=O)c2ccccc2C1(N)c1ccccc1` (stereo not given), the half-maximal effective concentration (EC50) was 661 µM and the 50% inhibitory concentration (IC50) came to 871 µM. The matching figures for `CC(=O)C(=Cc1cccc(Br)c1)C(C)=O`: more than 135 µM and 7.41 µM. The matching figures for `COc1cc2c(cc1O)Cc1c-2[n+](C)cc2cc(OC)c(OC)cc12`: more than 347 µM and 1.62 µM. The matching figures for `CCOC(=O)C(N)CSC(=O)NC` (stereo not given): more than 1020 µM and 87.1 µM.

For the compound `[N-]=[N+]=NC1(N=[N+]=[N-])C(=O)NN=C(c2ccccc2)C1=O` (stereo not given), the outcome was inactive. Take `CO/N=C(\C(=O)Nc1cncs1)c1csc(N)n1`: the EC50 is more than 200 µM and the IC50 was more than 200 µM. In the case of `S=C(c1c[nH]c2ccccc12)N1CCOCC1`, the EC50 is more than 200 µM and the IC50 is more than 200 µM.

Consider `Cc1cnc2nc(N)nc(N)c2n1`, for which the EC50 was more than 200 µM and the 50% inhibitory concentration (IC50) is more than 200 µM. As to `O=C(NP1(=O)NCc2ccccc2CN1)OC1CCCCC1`, the EC50 is more than 288 µM and the IC50 was more than 288 µM. As for `O=C(O)CN1C=C(C(=O)c2cc3ccccc3n2S(=O)(=O)c2ccccc2)CCC1`, the EC50 is more than 200 µM and the concentration for half-maximal inhibition (IC50) was determined as 89.1 µM. Turning to `COc1cc(/C=C/C(=O)CC(=O)/C=C/c2ccc(OC(=O)CCCCC3CCSS3)c(OC)c2)ccc1OC(=O)CCCCC1CCSS1` (stereo not given), the EC50 was more than 200 µM and the IC50 is more than 200 µM. In the case of `NC(Cc1ccc(O)c(O)c1)P(=O)(O)O` (stereo not given), the EC50 was more than 200 µM and the IC50 is 24.5 µM.

For the compound `CC(C)=CCC/C(=C/CC/C(C)=C/CCc1ccoc1)C(=O)O`, the EC50 is more than 295 µM and the IC50 turned out to be 107 µM.

As to `O=C(/C=C/c1ccc(Cl)cc1)c1cccs1`, the EC50 is more than 200 µM and the IC50 came to 1.23 µM.

With `Cc1cc(=O)oc2c1c(C)nn2-c1cccc(Cl)c1`, the EC50 is more than 95.5 µM and the half-maximal inhibitory concentration (IC50) was 89.1 µM.

Turning to `c1ccc(-c2nc3n(n2)CCC(c2ccccc2)S3)cc1` (stereo not given), the EC50 was 45.7 µM and the IC50 was more than 200 µM.

`O=C(Nc1ccc(C2=NCC(O)CN2)cc1)c1ccc(C(=O)Nc2ccc(C3=NCC(O)CN3)cc2)cc1` (stereo not given): the EC50 is 12.9 µM and the half-inhibitory concentration (IC50) was more than 200 µM. The corresponding values for `Oc1ccc2ccccc2c1OCc1nnc(CCCCCCCCc2nnc(COc3c(O)ccc4ccccc34)n2Nc2ccccc2)n1Nc1ccccc1` are more than 2 µM and more than 2 µM. For `COc1cccc(NC(=O)CC(=O)NNCC(=O)Nc2nnc(-c3ccc(N(CCC#N)S(=O)(=O)c4ccccc4)cc3)s2)c1`, the EC50 was more than 77.6 µM and the IC50 came to 66.1 µM. The corresponding values for `O=C(NCCc1ccccc1)/C(=C\c1ccc(Cl)cc1Cl)NC(=O)c1ccccc1` are more than 200 µM and more than 200 µM.

`COC(=O)C1=C(c2ccccc2)C(O)(c2ccccc2)C(C(=O)OC)C1=O` (stereo not given): the EC50 is more than 339 µM and the IC50 worked out at 209 µM.

With `O=C(C(=C(I)I)c1ccccc1)c1ccccc1`, the EC50 was more than 200 µM and the half-inhibitory concentration (IC50) is 19.5 µM.

As to `Cc1cc(=O)c2c3c(ccc2[nH]1)Oc1ccccc1O3`, the EC50 is more than 7.59 µM and the IC50 was more than 7.59 µM. As to `COC(=O)NC12CC3CC(CC(F)(C3)C1)C2`, the EC50 is more than 575 µM and the IC50 is 145 µM. The matching figures for `C=CCC(=S)NCCc1c[nH]c2ccccc12`: more than 200 µM and 120 µM. `Nc1nc(SC2CCCCC2)nc2c1ncn2C1OC(CO)C(O)C1O` (stereo not given): the EC50 was more than 200 µM and the half-inhibitory concentration (IC50) turned out to be 138 µM. The matching figures for `CC(=O)NC1CCC(NC(=O)OC(C)(C)C)C(NC(=O)OC(C)(C)C)C1` (stereo not given): more than 200 µM and more than 200 µM. The corresponding values for `O=[As](O)(O)c1cc(N=Nc2ccc(-c3ccc(N=Nc4cc([As](=O)(O)O)c(O)cc4O)cc3)cc2)c(O)cc1O` are 6.61 µM and 7.76 µM. Regarding `FC(F)(F)c1nc(Cl)nc2nc[nH]c12`, the EC50 was more than 200 µM and the half-inhibitory concentration (IC50) was found to be 97.7 µM. As for `Nc1[nH]c(=O)nc2snnc12`, the EC50 is more than 200 µM and the IC50 was found to be 4.79 µM.

For `CCCCCCCCCCCCCCCCCC(=O)OCC(CN(C)CCN(C)C)OC(=O)CCCCCCCCCCCCCCCCC` (stereo not given), the result was inactive. On the same count and under the same terms, the value for `CC(C)(CN(Cc1ccccc1)Cc1ccccc1)[N+](=O)[O-]` was “inactive”. Consider `CC(=O)C1=C2SCCN2C(=O)CC1`, for which the EC50 is more than 135 µM and the IC50 is more than 135 µM. As to `CN1CCC2(CC1)SC[C@H]1C(=O)N(c3ccc(Cl)cc3)C(=O)N12`, the EC50 is more than 200 µM and the concentration for half-maximal inhibition (IC50) was determined as 120 µM. The matching figures for `Nc1nc(NC(=O)C2=NS(=O)(=O)c3cc(S(N)(=O)=O)c(Cl)cc3N2)n[nH]1`: 331 µM and 380 µM.

Regarding `COc1ccccc1NC(=S)/N=C/c1c(O)[nH]c(=O)[nH]c1=O`, the EC50 is more than 200 µM and the half-maximal inhibitory concentration (IC50) was more than 200 µM.

One may read the EC50 as the concentration that produces a half-maximal response. By IC50 is commonly meant the concentration that inhibits the measured activity by half. Read a high IC50 as weaker potency in that assay.
